The values below are quoted from earlier work in patent US20230121528A1, “SALMONELLA-BASED DNA VACCINES IN COMBINATION WITH AN ANTIBIOTIC” (VAXIMM AG, priority 2020, published 2023).

This data set relates to glioblastoma. Particulars: glioblastoma patients.

On to “avastin: monoclonal antibody avastin targeting VEGF”, for which the survival benefit entry was “only showed benefits in progression free survival, but not in overall survival”.
